{"source": "paper PMC12172326", "about": "(Journal of Biomedical Science, 2025)", "key": {"[1]": {"experiment": "LPS-induced inflammation in RAW 264.7 cells (viability, nitrite, TNF-α)", "format": "cell-based, mouse", "conditions": "mouse, RAW 264.7 cells, RAW 264.7, 0.6 to 60 μM, LPS 20 ng/mL, MTS, read-out: cellular viability", "description": "(§1) RAW 264.7 cell culture: RAW 264.7 cells were obtained from ATCC (Manassas, VA, USA) and grown in Dulbecco’s modified Eagle’s (DMEM), high glucose, GlutaMAX™ media supplemented with 10% FBS (ThermoFisher Scientific, Asheville, NC, USA). Cells were maintained at 37 °C and 5% CO2, were propagated as described by ATCC guidelines, and were cultured as previously communicated. […] One hour later, cells were challenged with lipopolysaccharide (LPS) (20 ng/ml, E. Coli O55:B5, Sigma, St Louis, MO, USA; Cat # L4005). This LPS concentration was selected from pilot studies to provide a submaximal inflammatory insult. Twenty-four hours later, culture media was collected to quantify cell viability (CellTiter 96® Aqueous One Solution Cell Proliferation Assay kit (MTS); Promega, Madison, WI, USA, Cat # G3580), secreted TNF-α protein (ELISA MAX™ Deluxe Set Mouse TNF-α, BioLegend, CA, USA; Cat # 430915) and nitrite (Griess Reagent System, Promega, Madison, WI, USA; Cat # G2930)."}, "[2]": {"test_system": "RAW 264.7 cells", "experiment": "LPS-induced inflammation in RAW 264.7 cells (viability, nitrite, TNF-α)", "format": "cell-based, mouse", "conditions": "RAW 264.7, LPS 20 ng/mL, 24 h, p < 0.05", "description": "as §1"}, "[3]": {"test_system": "mice subjected to controlled cortical impact (CCI) TBI", "experiment": "CCI TBI in mice: behavioral assessment", "format": "in vivo, mouse", "conditions": "for CCI-induced asymmetry, elevated body swing test: 1 week post injury; for home cage activity during the initial 11 h following CCI: dark phase; for CCI-induced reduction in brake time (gait): left hind limb, 1 week after injury", "description": "For behavioral analyses, mice were assessed for spatial memory, gait function, motor coordination/balance function and home cage activity. The animals were subsequently evaluated for cellular changes using histology and immunohistochemistry after euthanasia.\nIn order to develop a controlled cortical impact (CCI) model of TBI, mice were anesthetized with 2.5% 2,2,2-tribromoethanol (Avertin, 400 mg/kg, I.P.) (Sigma, St. Louis, MO, USA) and placed in a stereotaxic frame (Kopf Instruments, Tujunga, CA, USA). A 4 mm craniotomy was performed under sterile procedures; the craniotomy point was selected midway between the lambda and bregma sutures, and laterally midway between the central suture and the temporalis muscle. The skull fragment was then carefully removed without disruption of the underlying dura on the right side of the head. Before injury, the tip of the impactor was angled and kept perpendicular to the exposed cortical surface. The mouse CCI instrument consisted of an electromagnetic impactor, Impact One (Leica Biosystems Inc., Buffalo Grove, IL, USA) that allows independent manipulation of injury severity by adjusting the contact duration and velocity of a metal impactor and the depth of cortical deformation. In these experiments, the contact velocity was set at 5.0 m/s, the dwell time was set at 0.2 s, and the deformation depth was set at 1.5 mm to produce a moderate TBI. The injury site was cleaned and dried by use of sterile cotton tipped applicators prior to suturing the wound. During surgery and recovery, the body temperature of all animals was maintained at 36–37 °C by using a heating pad.\nBehavioral tests were conducted 1 week and 2 weeks post the CCI/sham procedure, to evaluate motor function and coordination differences between groups, and to compare with data performed 1 week prior to either procedure. All behavioral tests were conducted during the animals’ day light cycle; home cages were moved to behavioral rooms at least 1 h before testing.\nHome cage activity monitoring was automatically and non-intrusively monitored using the digital individually ventilated cage system (DVC™; Tecniplast). Mice were individually housed, and their activity was tracked for 3 days before CCI/sham and 7 days after CCI/sham procedures.\nBeam Walking Test (BWT) was used to evaluate CCI-induced impairments in motor coordination. Mice have an intrinsic preference for a darkened enclosed environment, as compared to an open bright field. Each mouse was placed in a darkened one-side-open cube box for 2 min for habituation and then was brought to the other (light) end of the beam, to start the trial. Two beams were used in this study with the following dimensions: 0.6 cm or 1.2 cm (width) × 91 cm (length). The time taken for each mouse to traverse the beam to reach the dark cube box and the ‘immobility time’ spent between the moment a mouse was initially placed on the beam and it started walking were recorded. Two trials were recorded for each animal with the 1.2 cm-width beam, and an additional two trials with the 0.6 cm-width were subsequently recorded. The mean times to traverse the beam and the immobility times were calculated, and a plot was generated to evaluate treatment effects; these times were then used for statistical analysis.\nGait analysis was employed to assess gait parameters following a specific protocol provided by the DigiGait manufacturer (Mouse Specifics, Inc., Framingham, MA, USA). The study tracked gait function at three time points: baseline, 1-week prior to CCI (PRE), and 1- and 2-weeks post-CCI. At the beginning of the trial, mice were brought to the test chamber for habituation to the new environment for 2 min, and then were given a 1-min run at 5 cm/sec before a 1-min break. […] Videos were assessed using DigiGait software to evaluate parameters that included stride duration, length, paw angle, and stance for all four limbs, following Mouse Specifics, Inc.'s procedures. […]"}, "[4]": {"conditions": "high dose, initial 5 min on Day 2, 1 week after CCI, vs CCI + Vehicle"}, "[5]": {"conditions": "high dose, vs CCI + vehicle, p < 0.05"}, "[6]": {"conditions": "low dose, p < 0.05 vs CCI + Vehicle"}}}
{"smiles": "Nc1cccc2c1C(=S)N(C1CCC(=O)NC1=O)C2=O", "note": "(centres unmarked) [3-MP, 3-monothiopomalidomide]", "values": [{"measurement": "viability at 24 h", "setting": "[1]", "value": "> 90", "unit": "%"}, {"measurement": "concentration significantly reducing LPS-induced TNF-α", "setting": "[2]", "value": "≥ 30", "unit": "µM"}, {"measurement": "concentration significantly reducing LPS-induced nitrite", "setting": "[2]", "value": "≥ 10", "unit": "µM"}, {"measurement": "CCI-induced elevation of swing duration CV (gait)", "setting": "[3]; both low and high doses, p < 0.05 vs CCI + Vehicle", "value": "significantly reduced"}, {"measurement": "CCI-induced asymmetry, elevated body swing test", "setting": "[3]; high dose", "value": "trend towards normalization"}, {"measurement": "home cage activity during the initial 11 h following CCI", "setting": "[3]; high dose, vs CCI + vehicle", "value": "did not reach statistical significance"}, {"measurement": "discrimination index (DI) of distance traveled", "setting": "[3]; high dose, initial 5 min, vs CCI + Vehicle", "value": "substantially higher"}, {"measurement": "ambulatory time in the center zone, novelty-dependent exploration test", "setting": "[3]; [4]", "value": "significantly lower"}, {"measurement": "distance traveled, novelty-dependent exploration test", "setting": "[3]; [4]", "value": "significantly lower"}, {"measurement": "CCI-induced reduction in brake time (gait)", "setting": "[3]; high dose, p < 0.05", "value": "significantly alleviated"}, {"measurement": "discrimination index (DI) of duration in the center", "setting": "[3]; [5]", "value": "significantly higher"}, {"measurement": "home cage activity on the day after CCI", "setting": "[3]; [5]", "value": "significantly higher"}, {"measurement": "lower home cage activity 24 h later (night + 1)", "setting": "[3]; low dose and high dose, vs CCI + vehicle, p < 0.05", "value": "significantly mitigated"}, {"measurement": "CCI-induced asymmetry, elevated body swing test", "setting": "[3]; [6]", "value": "notably reduced"}, {"measurement": "home cage activity during the initial 11 h following CCI", "setting": "[3]; low dose, vs CCI + vehicle, p < 0.05", "value": "notably higher"}, {"measurement": "CCI-induced reduction in brake time (gait)", "setting": "[3]; low dose", "value": "trend towards improvement"}, {"measurement": "paw angle impairment (gait)", "setting": "[3]; [6]", "value": "mitigated"}]}
